In patent US7829589B2, “Sulfonamide compounds and uses thereof” (Elixir Pharmaceuticals, Inc., priority 2005, dated 2010) one finds Ki data, which are given here for 11 compounds.

Molecules are shown by their SMILES. A value given as a limit tells only on which side of the number the result lay.

Sequence of GHS-R (Q92847 whole entry, species assumed): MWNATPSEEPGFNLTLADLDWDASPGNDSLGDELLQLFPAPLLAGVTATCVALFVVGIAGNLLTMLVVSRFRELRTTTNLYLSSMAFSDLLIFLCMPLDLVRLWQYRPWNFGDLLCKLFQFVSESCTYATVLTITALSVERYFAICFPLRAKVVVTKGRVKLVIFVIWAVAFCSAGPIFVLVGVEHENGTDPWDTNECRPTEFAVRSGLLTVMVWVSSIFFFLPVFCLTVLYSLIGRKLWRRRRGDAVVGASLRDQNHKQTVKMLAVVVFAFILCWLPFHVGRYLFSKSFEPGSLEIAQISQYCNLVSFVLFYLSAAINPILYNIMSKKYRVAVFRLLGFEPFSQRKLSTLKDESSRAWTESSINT

The assay has as its target GHS-R (Homo sapiens, UniProt Q92847). Nature of the assay: GHS-R antagonist activity (Ki) in a cell based assay. In a few lines: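 Transfected COS-7 cells were labelled 24 h with [^3H]-myo-inositol and preincubated 30 min at 37 °C in HEPES buffer pH 7.4 with 10 mM LiCl, optionally with 1 U/ml adenosine deaminase. Compound was applied for 45 min at 37 °C. [^3H]-inositol phosphates were extracted with perchloric acid and isolated by anion-exchange resin.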
As a reminder, the Ki is the dissociation constant of the complex between target and ligand, obtained from inhibition or displacement. A high value points to weaker binding. For the compound `CCN(CC)CCCS(=O)(=O)N1CC[C@H]1c1nc(Cc2ccc(Br)cc2)no1` [Compound 149, (S)-(3-{2-[3-(4-Bromo-benzyl)-[1,2,4]oxadiazol-5-yl]-azetidine-1-sulfonyl}-propyl)-diethyl-amine], the Ki was below 100 nM.
`CCN(CC)CCCS(=O)(=O)N[C@@H](C)c1nc(-c2ccc(OC)cc2)no1` [Compound 150, (S)-3-Diethylamino-propane-1-sulfonic acid {1-[3-(4-methoxy-phenyl)-[1,2,4]oxadiazol-5-yl]-ethyl}-amide] showed a Ki of 100 to 500 nM.
As for `CCN(CC)CCCS(=O)(=O)NCc1nc(Cc2ccc(Br)cc2)no1` [Compound 151, 3-Diethylamino-propane-1-sulfonic acid [3-(4-bromo-benzyl)-[1,2,4]oxadiazol-5-ylmethyl]-amide], the figure is 100 to 500 nM; as for `CCN(CC)CCCS(=O)(=O)N[C@H](C)c1nc(-c2ccc(OC)cc2)no1` [Compound 152, (R)-3-Diethylamino-propane-1-sulfonic acid {1-[3-(4-methoxy-phenyl)-[1,2,4]oxadiazol-5-yl]-ethyl}-amide], 100 to 500 nM.
In turn, `CCN(CC)CCCS(=O)(=O)N1CC[C@H]1c1nc(-c2ccc(OC)cc2)no1` [Compound 153, (S)-Diethyl-(3-{2-[3-(4-methoxy-phenyl)-[1,2,4]oxadiazol-5-yl]-azetidine-1-sulfonyl}-propyl)-amine] registered a Ki below 100 nM.
Turning to `CCN(CC)CCCS(=O)(=O)NC(C)(C)c1nc(Cc2ccc(Br)cc2)no1` [Compound 154, 3-Diethylamino-propane-1-sulfonic acid {1-[3-(4-bromo-benzyl)-[1,2,4]oxadiazol-5-yl]-1-methyl-ethyl}-amide], the Ki was below 100 nM.
The compound `CCN(CC)CCCS(=O)(=O)NC(C)(C)c1nc(-c2ccc(OC)cc2)no1` [Compound 155, 3-Diethylamino-propane-1-sulfonic acid {1-[3-(4-methoxy-phenyl)-[1,2,4]oxadiazol-5-yl]-1-methyl-ethyl}-amide] had a Ki of 100 to 500 nM.
To `CCN(CC)CCCS(=O)(=O)NCc1nc(-c2ccc(OC)cc2)n[nH]1` [Compound 156, 3-Diethylamino-propane-1-sulfonic acid [5-(4-methoxy-phenyl)-2H-[1,2,4]triazol-3-ylmethyl]-amide] belongs 100 to 500 nM.
To `CCN(CC)CCCS(=O)(=O)NCc1nc(Cc2ccc(Cl)cc2)n[nH]1` [Compound 157, 3-Diethylamino-propane-1-sulfonic acid [5-(4-chloro-benzyl)-2H-[1,2,4]triazol-3-ylmethyl]-amide] belongs 100 to 500 nM; to `CCN(CC)CCCS(=O)(=O)N[C@@H](CC(C)C)c1nc(-c2ccc(OC)cc2)n[nH]1` [Compound 159, (S)-3-Diethylamino-propane-1-sulfonic acid {1-[5-(4-methoxy-phenyl)-2H-[1,2,4]triazol-3-yl]-3-methyl-butyl}-amide], 100 to 500 nM.
To `CCN(CC)CCCS(=O)(=O)N[C@H](CC(C)C)c1nc(-c2ccc(OC)cc2)n[nH]1` [Compound 160, (R)-3-Diethylamino-propane-1-sulfonic acid {1-[5-(4-methoxy-phenyl)-2H-[1,2,4]triazol-3-yl]-3-methyl-butyl}-amide] belongs 100 to 500 nM.
